Results: patent US6927223B1, “Use of serotonin agents for adjunct therapy in the treatment of cancer” (priority 2000, dated 2005)
Entries after “also recorded” stand apart in the source; their conditions may differ.

Assays:
B16BL6 melanoma = assay: Established subcutaneous B16BL6 melanoma in water- or ethanol-drinking C57BL6 mice: tumor growth, metastasis, body weight, intake, body fat; settings: for Perigonadal Fat (mg ± SE): necropsy; for Carcass Fat (% ± SE): weight of lipid/dry carcass weight x 100
Protocol: In an effort to approximate the effect of SSRIs on melanomas in clinical situations, administration of the agents began after tumor growth was apparent.
Fourteen to 16 C57BL6 mice per group were inoculated s.c. with 1×10^6 B16BL6 melanoma cells. […] The test agent and saline control were injected daily subcutaneously (s.c.) into the gluteal region opposite from the site of tumor inoculation, approximately two hours before the dark cycle. […] At 21 days the animals were sacrificed.
Female C57/BL6 mice consumed either water or 20% w/v ethanol ad libitum for six weeks prior to inoculation with of melanoma cells. The mice were injected with 1×10^6 tumor cells subcutaneously (s.c.) into the dorsal hip.
Two weeks after inoculation, the animals were divided into four treatment groups: (1) water drinking or (2) ethanol drinking, both groups injected with saline control for seven days; (3) water drinking or (4) ethanol drinking. […] Tumor growth was measured with calipers on days 14, 16, 18, and 20. Mice were killed on day 21 and necropsied.
Perigonadal and carcass fat were determined. Body weight, food consumption, and fluid-consumption were measured continually throughout the experiment.
Perigonadal fat, a measure of body fat content, was removed at necropsy and weighed. Mice were then dehydrated at 60° C. until they reached constant weight. They were then pulverized in a Bel-Art Micro-Mill. The whole carcass was transferred to a soxhlet extractor and the lipid was extracted with chloroform:methanol (2:1) for 24 hours. The extraction cone containing the carcass was removed, air-dried to evaporate the chloroform and methanol, and then weighed. The difference in weight was the weight of carcass lipid. The percentage of carcass lipid was calculated as the weight of lipid/dry carcass weight×100.

3T3 adipocytes = assay: Lipid accumulation in adipocytes differentiated from NIH 3T3 fibroblasts, Oil Red-O staining; type: cell-based; settings: 5 μM and 10 μM, 10 days
Protocol: The relative absorbance was calculated as the ratio of absorbance of each treatment to the absorbance of the nondifferentiated (Ndiff) cells.
After 10 days the lipid content was determined by staining the cells with Oil Red-O and determining the intensity of the red color in an uv spectrophotometer. Experiments were done in triplicate.

A375 melanoma cells [1] = test system: A375 melanoma cells
Protocol: (§1) Viability was assessed by the crystal violet assay. […] Values are mean±SE for three experiments. […] Values are for one experiment.
(§2) A375 and SKMel-28 cells were seeded at a density of 20,000 cells in one ml DMEM+10% FBS per well in 24 well plates and cultured for 24 hours. […] The culture plates were removed and the medium from each well was discarded. The cells were fixed with acetic acid:methanol (1:3) for one hour at room temperature. The fixed cells were washed with 80% methanol and stained with crystal violet (0.5%) for one hour. Crystal violet dye is taken up proportionately depending upon the number of cells that are adhered to the plate. Excess dye is removed by washing plates in running distilled water. After the plates were dry, the dye was solubilized in 10% acetic acid. Aliquots of solubilized dye from each well were transferred to a 96 well plate and the absorbance of the color was measured at 585 nm. The effects were compared relative to untreated controls.

SKMel-28 cells = assay: Viability of melanoma cells, crystal violet assay; type: cell-based, human; settings: SKMel-28, preliminary data from one study
Protocol: as §1, §2

B16BL6 melanoma cells = settings: stated jointly for B16BL6 and A375
A375 melanoma cells [2] = settings: stated jointly for B16BL6 and A375
[3] = 10 mg/kg/day injected i.v. or continuously infused subcutaneously via pump, mice; cited from earlier work
B16F10 melanoma cells = settings: cited from earlier work; for tumor lung colonization (wet weight of tumor aggregates) versus saline controls: fluoxetine 12, 16, 20 or 40 mg/m^2, amitriptyline 30, 60 or 75 mg/m^2, from 24 hours after i.v. inoculation; for median survival: tumor cells injected i.v., all groups
metastatic melanoma = settings: single agent; cited from earlier work
[4] = Ethanol-drinking mice (20% w/v), 10 mg/kg/day s.c. for 7 days
[5] = Water-drinking mice, 10 mg/kg/day s.c. for 7 days

Compound: CNCCC(Oc1ccc(C(F)(F)F)cc1)c1ccccc1 (stereo not shown) [fluoxetine]
- tumor growth rate (B16BL6 melanoma; 10 mg/kg/day s.c. for 7 days, irrespective of water or ethanol consumption): significantly decreased
- decrease in wet weight of tumors at necropsy versus saline-injected mice (B16BL6 melanoma; 10 mg/kg/day s.c. for 7 days, necropsy day 21): greater than 2 fold
- Perigonadal Fat (mg ± SE) (B16BL6 melanoma; [4]): 192 ± 53 mg
- Carcass Fat (% ± SE) (B16BL6 melanoma; [4]): 31.7 ± 2.3 %
- Perigonadal Fat (mg ± SE) (B16BL6 melanoma; [5]): 53 ± 25 mg
- Carcass Fat (% ± SE) (B16BL6 melanoma; [5]): 25.8 ± 1.4%
- tumor volume (B16BL6 melanoma; daily s.c. injection from day 14 to day 21, water- and ethanol-consuming mice): decreased tumor volume
- corrected body weight (total body weight minus tumor wet weight), test versus control animals (B16BL6 melanoma; day 21): nearly identical
- toxicity of the effective dose (B16BL6 melanoma; mouse, in vivo): non toxic
- number and frequency of metastases (B16BL6 melanoma; subcutaneous B16BL6 tumors, 10 mg/kg/day s.c. for 7 days, 10 mg/kg/day): inhibit metastasis; also recorded: greatly reduced
- food intake (B16BL6 melanoma; water-drinking mice, experimental period): does not alter food intake
- lipid content of differentiated adipocytes (3T3 adipocytes): increases lipid content
- cell viability at 16 μM (A375 melanoma cells [1]; A375, 16 μM): almost all the cells were dead
- concentration at which drug toxicity is evident (A375 melanoma cells [1]; A375, crystal violet): 4 µM
- concentration range of more pronounced toxicity (A375 melanoma cells [1]; A375, crystal violet): 8 to 16 µM
- time within which toxicity is exerted (A375 melanoma cells [1]; A375 and SKMel-28, crystal violet): ≤ 24 h
- major toxicity range (SKMel-28 cells): 8 to 16 µM
- fluoxetine level that completely inhibited the incorporation of isotope (B16BL6 melanoma cells): about 30 uM
- fluoxetine level that completely inhibited the incorporation of isotope (A375 melanoma cells [2]): about 30 uM
- approximate serum level [3]: 100 to 280 ng/mL
- tumor lung colonization (wet weight of tumor aggregates) versus saline controls (B16F10 melanoma cells): increased tumor lung colonization
- median survival (B16F10 melanoma cells): 17 days

Compound: CN(C)CCC=C1c2ccccc2CCc2ccccc21 [amitriptyline]
- tumor lung colonization (wet weight of tumor aggregates) versus saline controls (B16F10 melanoma cells): increased tumor lung colonization
- median survival (B16F10 melanoma cells): 17 days

Compound: CN(C)/N=N/c1[nH]cnc1C(N)=O [DTIC, dimethyltriazenoimidazole carboxymide]
- share of cases of metastatic melanoma with partial remission (metastatic melanoma): about one-quarter
